Patent US10842794B2, “Use of Sigma-1 receptor agonist compounds” (MTA TÁMOGATOTT KUTATÓCSOPORTOK IRODÁJA, priority 2014, dated 2020)

Key:
[1] = tested on: human trabecular meshwork-5 (HTM-5) cells; experiment: Actin cytoskeleton rearrangement in HTM-5 cells (phalloidin F-actin staining); assay type: cell-based; settings: 24 h, 20 ng/mL PDGF and 10 μM FLU
[2] = tested on: rat model of bleomycin-induced lung fibrosis; experiment: Rat model of bleomycin induced pulmonary fibrosis: Masson trichrome staining of lung; assay type: in vivo; settings: fluvoxamine 20 mg/bwkg/day per os
Protocol: Masson trichrome staining of tissue sections was performed Bars represent Mean±SEM, n=6/group). Specifically:
For the induction of pulmonary fibrosis male Wistar rats were anesthetized. Bleomycin (5 mg/bwkg in a 300 μl solution of isotonic saline) or 300 μl isotonic saline was administered into the trachea using a 30G needle.
Animals were randomly divided into 4 groups of 6 rats each as follows (i)—control group was sham operated, received isotonic saline per os daily for 3 weeks, (ii) vehicle treated group: received isotonic saline per os daily for 3 weeks after the induction of lung fibrosis, (iii) fluvoxamine treated group: received fluvoxamine (20 mg/bwkg/day per os for 3 weeks after the induction of lung fibrosis), (iv) fluvoxamine+NE100 treated group: received fluvoxamine (20 mg/bwkg/day; per os) and 1 mg/bwkg/day NE100 (i.p. for 3 weeks after the induction of lung fibrosis. […]
The stained sections were viewed and photographed with Pannoramic 250 Flash and Pannoramic Viewer 1.15.2 (3D HISTECH Ltd. Budapest, Hungary) Adobe Photoshop 13.0 and Scion Image for Windows software were used for the analysis. […] Finally these ratios were statistically analyzed in all of the treatment groups.

[3] = tested on: collagen I and collagen III mRNA in NRK49F cells; experiment: TGFβ-induced collagen-1 and collagen-3 production, quantitative RT-PCR; assay type: cell-based, rat; settings: 20 μM/L fluvoxamine
[4] = tested on: Streptozotocin induced type 1 diabetic rats; experiment: Diabetic rat kidney: αSMA protein level, western blot; assay type: in vivo; settings: fluvoxamine, predominantly the dose of 20 mg

COCCCC/C(=N\OCCN)c1ccc(C(F)(F)F)cc1 [fluvoxamine, 2-{[(E)-{5-Methoxy-1-[4-(trifluoromethyl)phenyl]pentylidene}amino]oxy}ethanamine]
fibrotic rearrangement and active production of actin filaments [1]: blocked
fibrotic lesions of the lung after bleomycin (Masson trichrome) [2]: prevented almost totally the fibrotic effect of bleomycin
mRNA expression of collagen-1 and collagen-3 ([3]; by 24 hours): remarkably diminished
collagen production (collagen-1 and collagen-3 mRNA) ([3]; by 48 hours): returned to the level of normal controls
αSMA protein level in kidney of diabetic rats [4]: reduced αSMA protein level by the half
